From patent US11364275B2, “Linear lipopeptide paenipeptins and methods of using the same” (priority 2017, dated 2022)
Values after ≈ are worked out from the molar mass of the structure shown. Blank lines part the entries; values can stand above or below the compound they belong to. Where a SMILES comes first, the peptide text is derived from it. Bridges are numbered along the chain shown (N, C = ends). [ ]: non-standard residue; d: D form. Dab = NCC[C@H](N)C(=O)O

What was measured:
[1] = tested on: K. pneumoniae FDA-CDC AR 0034; experiment: microbe, parasite or virus in culture; conditions: Klebsiella pneumoniae, read-out: MIC alone
[2] = tested on: A. baumannii FDA-CDC AR 0052; experiment: microbe, parasite or virus in culture; conditions: Acinetobacter baumannii, read-out: MIC alone
[3] = tested on: A. baumannii FDA-CDC AR 0037; experiment: microbe, parasite or virus in culture; conditions: Acinetobacter baumannii, read-out: MIC alone
[4] = tested on: K. pneumoniae FDA-CDC AR 0044; experiment: microbe, parasite or virus in culture; conditions: Klebsiella pneumoniae, read-out: MIC alone
[5] = tested on: A. baumannii FDA-CDC AR 0070; experiment: microbe, parasite or virus in culture; conditions: Acinetobacter baumannii, read-out: MIC alone
[6] = tested on: K. pneumoniae FDA-CDC AR 0097; experiment: microbe, parasite or virus in culture; conditions: Klebsiella pneumoniae, read-out: MIC alone
[7] = tested on: A. baumannii FDA-CDC AR 0063; experiment: microbe, parasite or virus in culture; conditions: Acinetobacter baumannii, read-out: MIC alone
[8] = tested on: K. pneumoniae FDA-CDC AR 0068; experiment: microbe, parasite or virus in culture; conditions: Klebsiella pneumoniae, read-out: MIC alone
[9] = tested on: K. pneumoniae FDA-CDC AR 0097; experiment: Time-kill kinetics in tryptic soy broth, alone and combined; type: cell-based, Klebsiella pneumoniae; conditions: K. pneumoniae AR 0097; TSB; analogues 4 μg/ml, antibiotics 1 μg/ml
Protocol: Bacterial viable counts were determined at 0, 2, 4, 6, and 24 h after antimicrobial treatment. Bacterial surviving counts at 24 h endpoints were subjected to analysis of variance (ANOVA) followed by Tukey's honest significant difference (HSD) tests using SPSS Statistics (version 24; SPSS, Inc., Chicago, Ill., USA).

[10] = tested on: A. baumannii FDA-CDC AR 0083; experiment: microbe, parasite or virus in culture; conditions: Acinetobacter baumannii, read-out: MIC alone
[11] = tested on: K. pneumoniae FDA-CDC AR 0080; experiment: microbe, parasite or virus in culture; conditions: Klebsiella pneumoniae, read-out: MIC alone
[12] = tested on: A. baumannii FDA-CDC AR 0037
[13] = tested on: K. pneumoniae FDA-CDC AR 0034
[14] = tested on: K. pneumoniae FDA-CDC AR 0080
[15] = tested on: A. baumannii FDA-CDC AR 0070
[16] = tested on: 10 carbapenem-resistant strains; conditions: all 10 tested strains
[17] = tested on: K. pneumoniae FDA-CDC AR 0044
[18] = tested on: A. baumannii FDA-CDC AR 0063
[19] = tested on: A. baumannii FDA-CDC AR 0052
[20] = tested on: A. baumannii FDA-CDC AR 0083
[21] = tested on: K. pneumoniae FDA-CDC AR 0097
[22] = tested on: K. pneumoniae FDA-CDC AR 0068

MIC [1]: > 32 µg/mL | MIC [2]: 4 µg/mL (≈ 5.35 µM) | MIC [3]: 16 µg/mL (≈ 21.4 µM) | MIC [4]: > 32 µg/mL | MIC [5]: 2 to 4 µg/mL (≈ 2.67 to 5.35 µM) | MIC [6]: > 32 µg/mL | MIC [7]: 16 to 32 µg/mL (≈ 21.4 to 42.8 µM) | MIC [8]: > 32 µg/mL | MIC [10]: > 32 µg/mL | MIC [11]: > 32 µg/mL
Structure (SMILES): CC[C@H]1OC(=O)[C@H](C)[C@@H](O[C@H]2C[C@@](C)(OC)[C@@H](O)[C@H](C)O2)[C@H](C)[C@@H](O[C@@H]2O[C@H](C)C[C@H](N(C)C)[C@H]2O)[C@](C)(OC)C[C@@H](C)C(=O)[C@H](C)[C@@H](O)[C@]1(C)O [clarithromycin]
bactericidal activity, single agent (in words) [9]: not bactericidal

Structure (SMILES): CC(C)C[C@@H]1NC(=O)[C@@H](Cc2ccccc2)NC(=O)[C@H](CCN)NC(=O)[C@@H](NC(=O)[C@H](CCN)NC(=O)[C@@H](N)[C@@H](C)O)CCNC(=O)[C@H]([C@@H](C)O)NC(=O)[C@H](CCN)NC(=O)[C@H](CCN)NC1=O [polymyxin B nonapeptide, reference compound] (H-T[Dab][Dab][Dab][dF]L[Dab][Dab]T; lactam 3-C (inferred); N-terminus assumed)
MIC of clarithromycin at the presence of PMBN or paenipeptin analogue at 4 μg/ml ([12]; A. baumannii AR 0037): 0.125-0.25 μg/ml | MIC of rifampicin at the presence of PMBN or paenipeptin analogue at 4 μg/ml ([12]; A. baumannii AR 0037): 0.25 μg/ml | MIC alone ([12]; FDA-CDC AR 0037): >32 µg/mL | MIC alone ([13]; FDA-CDC AR 0034): >32 µg/mL | MIC of clarithromycin at the presence of PMBN or paenipeptin analogue at 4 μg/ml ([13]; K. pneumoniae AR 0034): >32 μg/ml | MIC of rifampicin at the presence of PMBN or paenipeptin analogue at 4 μg/ml ([13]; K. pneumoniae AR 0034): 1 μg/ml | MIC alone ([14]; FDA-CDC AR 0080): >32 µg/mL | MIC of clarithromycin at the presence of PMBN or paenipeptin analogue at 4 μg/ml ([14]; K. pneumoniae AR 0080): 4 μg/ml | MIC of rifampicin at the presence of PMBN or paenipeptin analogue at 4 μg/ml ([14]; K. pneumoniae AR 0080): >32 μg/ml | MIC of clarithromycin at the presence of PMBN or paenipeptin analogue at 4 μg/ml ([15]; A. baumannii AR 0070): 0.25-0.5 μg/ml | MIC of rifampicin at the presence of PMBN or paenipeptin analogue at 4 μg/ml ([15]; A. baumannii AR 0070): 0.0625-0.125 μg/ml | MIC alone ([15]; FDA-CDC AR 0070): >32 µg/mL | MIC alone [16]: > 32 µg/mL | MIC alone ([17]; FDA-CDC AR 0044): >32 µg/mL | MIC of clarithromycin at the presence of PMBN or paenipeptin analogue at 4 μg/ml ([17]; K. pneumoniae AR 0044): 4 μg/ml | MIC of rifampicin at the presence of PMBN or paenipeptin analogue at 4 μg/ml ([17]; K. pneumoniae AR 0044): 2 μg/ml | MIC of clarithromycin at the presence of PMBN or paenipeptin analogue at 4 μg/ml ([18]; A. baumannii AR 0063): 0.5-1 μg/ml | MIC of rifampicin at the presence of PMBN or paenipeptin analogue at 4 μg/ml ([18]; A. baumannii AR 0063): 0.125 μg/ml | MIC alone ([18]; FDA-CDC AR 0063): >32 µg/mL | MIC of clarithromycin at the presence of PMBN or paenipeptin analogue at 4 μg/ml ([19]; A. baumannii AR 0052): 0.0313-0.0625 μg/ml | MIC of rifampicin at the presence of PMBN or paenipeptin analogue at 4 μg/ml ([19]; A. baumannii AR 0052): 0.0625-0.125 μg/ml | MIC alone ([19]; FDA-CDC AR 0052): >32 µg/mL | MIC of clarithromycin at the presence of PMBN or paenipeptin analogue at 4 μg/ml ([20]; A. baumannii AR 0083): 32 μg/ml | MIC of rifampicin at the presence of PMBN or paenipeptin analogue at 4 μg/ml ([20]; A. baumannii AR 0083): 8 μg/ml | MIC alone ([20]; FDA-CDC AR 0083): >32 µg/mL | MIC alone ([21]; FDA-CDC AR 0097): >32 µg/mL | MIC of clarithromycin at the presence of PMBN or paenipeptin analogue at 4 μg/ml ([21]; K. pneumoniae AR 0097): 32 μg/ml | MIC of rifampicin at the presence of PMBN or paenipeptin analogue at 4 μg/ml ([21]; K. pneumoniae AR 0097): 16 μg/ml | MIC alone ([22]; FDA-CDC AR 0068): >32 µg/mL | MIC of clarithromycin at the presence of PMBN or paenipeptin analogue at 4 μg/ml ([22]; K. pneumoniae AR 0068): >32 μg/ml | MIC of rifampicin at the presence of PMBN or paenipeptin analogue at 4 μg/ml ([22]; K. pneumoniae AR 0068): 2-8 μg/ml
